Laboratory results as given in ChEMBL document CHEMBL3045214, “Pest-managing efficacy of trans-asarone isolated from Daucus carota L. seeds” (2002).
Activity calls are given as the source filed them. The calls are words filed in the database; no cut-off is given here.

Key:
Caenorhabditis elegans = assay: Nematicidal activity against Caenorhabditis elegans assessed as mortality at 100 ug/ml after 24 hr by microscopic analysis; format: functional
Pichia kudriavzevii = assay: Antimicrobial activity against Pichia kudriavzevii at 100 ug/ml after 72 hr; format: functional
Candida parapsilosis = assay: Antimicrobial activity against Candida parapsilosis at 100 ug/ml after 72 hr; format: functional
[1] = tested on: Staphylococcus epidermidis; assay: Antimicrobial activity against Staphylococcus epidermidis at 100 ug/ml after 72 hr; format: functional, organism-based
Staphylococcus aureus = assay: Antimicrobial activity against Staphylococcus aureus at 100 ug/ml after 72 hr; format: functional, organism-based
Escherichia coli = assay: Antimicrobial activity against Escherichia coli at 100 ug/ml after 72 hr; format: functional, organism-based
Fusarium oxysporum = assay: Antimicrobial activity against Fusarium oxysporum at 100 ug/ml after 72 hr; format: functional, organism-based
Aspergillus parasiticus = assay: Antimicrobial activity against Aspergillus parasiticus at 100 ug/ml after 72 hr; format: functional, organism-based
Aspergillus flavus = assay: Antimicrobial activity against Aspergillus flavus at 100 ug/ml after 72 hr; format: functional, organism-based
Candida albicans = assay: Antimicrobial activity against Candida albicans at 100 ug/ml after 72 hr; format: functional
Manduca sexta = assay: Antifeedant activity against Manduca sexta at 100 ug/ml after 6 days; format: functional
Heliothis virescens = assay: Antifeedant activity against Heliothis virescens (tobacco budworm) at 100 ug/ml after 6 days; format: functional
Helicoverpa zea = assay: Antifeedant activity against Helicoverpa zea (corn earworm) at 100 ug/ml after 6 days; format: functional
Aedes aegypti [2] = assay: Mosquitocidal activity against fourth-instar larvae of Aedes aegypti assessed as mortality at 100 ug/ml after 24 hr; format: functional
Aedes aegypti [3] = assay: Mosquitocidal activity against fourth-instar larvae of Aedes aegypti assessed as mortality at 200 ug/ml after 24 hr; format: functional
Aedes aegypti [4] = assay: Mosquitocidal activity against fourth-instar larvae of Aedes aegypti assessed as mortality after 24 hr; format: functional, organism-based
Panagrellus redivivus = assay: Nematicidal activity against Panagrellus redivivus assessed as mortality at 100 ug/ml after 24 hr by microscopic analysis; format: functional

SMILES	Activity [1]	Activity (Staphylococcus aureus)	Activity (Escherichia coli)	Activity (Fusarium oxysporum)	Activity (Aspergillus parasiticus)	Activity (Aspergillus flavus)	Activity (Manduca sexta)	Activity (Heliothis virescens)	Activity (Helicoverpa zea)	mortality (Aedes aegypti [4])	mortality (Caenorhabditis elegans)	inhibition zone (IZ) (Pichia kudriavzevii)	inhibition zone (IZ) (Candida parapsilosis)	inhibition zone (IZ) (Candida albicans)	mortality (Panagrellus redivivus)	further results
C/C=C/c1cc(OC)c(OC)cc1OC [TRANS-ASARONE]	inactive	inactive	inactive	inactive	inactive	inactive	79%	96%	97%	Active						mortality at 100 µg/mL (Caenorhabditis elegans): 100%; zone of inhibition at 100 µg/mL (Pichia kudriavzevii; read-out: IZ): 7 mm; zone of inhibition at 100 µg/mL (Candida parapsilosis; Lodderomyces parapsilosis, read-out: IZ): 6 mm; zone of inhibition at 100 µg/mL (Candida albicans; read-out: IZ): 6 mm; mortality at 100 µg/mL (Aedes aegypti [2]): 43%; mortality at 200 µg/mL (Aedes aegypti [3]): 100%; mortality at 100 µg/mL (Panagrellus redivivus): 100%
COc1cc(OC)c(OC)cc1C=O	inactive	inactive	inactive	inactive	inactive	inactive	inactive	inactive	inactive	inactive	inactive	inactive	inactive	inactive	inactive	
CC(C)=CCC/C(C)=C/CO	inactive	inactive	inactive	inactive	inactive	inactive	inactive	inactive	inactive	inactive	inactive	inactive	inactive	inactive	inactive	
CCCCCCCC/C=C\CCCCCCCC(=O)O	inactive	inactive	inactive	inactive	inactive	inactive				inactive	inactive	inactive	inactive	inactive	inactive	
